Calls of active or inactive are those of the source.

Assay [1] can be described thus: Trypanosoma cruzi growth suppression in host cells – NIH3T3 host cells, beta-gal luminescence, confirmation (AID 2044).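 Note: intracellular parasites grown in NIH/3T3 mouse fibroblasts as host cells; luminescent beta-galactosidase reporter signal from transgenic T. cruzi replicating inside host cells; inhibitors lower the luminescence signal.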 In kind it is functional, cell-based.
Assay [2] is described as follows: NIH3T3 cell viability loss – ATP luminescence, mouse fibroblasts, counter-screen, dose response (AID 2010).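 Note: cells exposed to compound for about 90 hours before reading.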 In kind it is functional, cell-based.
Assay [3] in a line: reduction of Shn3 3'UTR-driven luciferase in osteoblasts – cell-based, Clone20 osteoblasts, firefly luciferase, cherry-picked, dose response (AID 624132).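 Note: firefly luciferase luminescence from reporter carrying the Shn3 3'UTR in osteoblasts.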 In kind it is functional.
The nature of assay [4]: loss of viability in HepG2 cells – cell-based, CellTiter-Glo, cherry-picked, cytotoxicity control for Shn3 inhibitor project, dose response (AID 624134). In kind it is functional.
Assay [5] can be described thus: non-specific 3'UTR reporter inhibition in Clone20-Shn3RL – cell-based, Renilla luciferase, cherry-picked, counter-screen for Shn3 inhibitor project, dose response (AID 624133). The format is functional. In general terms: The purpose of a counterscreen is to sort out artefacts and off-target activity.
Another assay concerns the target Cytochrome P450 3A4 (Homo sapiens, UniProt P08684). Conditions: Potency.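 Note: confirmatory qHTS run detecting inhibitors and substrates of CYP3A4.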
Assay [6] in a line: toxicity toward HepG2 liver cells – cell-based, plate reader, cherry-pick, antagonist series, cytotoxicity control, dose response (AID 743416). The format is functional.
A short description of assay [7]: blockers of bursicon-stimulated LGR2 cAMP reporter – cell-based, HEK293, CRE-luciferase reporter, cherry pick, set 2, dose response (AID 743343).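 Note: transfected cells were stimulated with diluted bursicon conditioned medium after compound addition.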 The format is functional.
Assay [8] can be described thus: blockade of melanocortin 4 receptor signaling – cell-based, plate reader, cherry pick, counter-screen for LGR2 antagonist project, dose response (AID 743444).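 Note: transfected HEK 293 cells stimulated with alpha-MSH peptide; potency of inhibitors of the alpha-MSH evoked signal.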 The format is functional.
Assay [9] in a line: activation of miR-122 Renilla sensor silencing – cell-based, Huh7 psiCHECK-miR122, Renilla luciferase, cherry-picked, dose response (AID 651956).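 Note: huh7 hepatoma cells stably carrying a psiCHECK-2 miR-122 sensor plasmid; renilla luciferase signal reporting endogenous miR-122 activity after 48 h compound exposure.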 In kind it is functional.
Assay [10] in a line: general mammalian cell viability loss – inhibitor set, cherry-pick, set 2, cytotoxicity control for miR-122 modulator project, dose response (AID 720697). The format is functional, cell-based.
The nature of assay [11]: general mammalian cell viability loss – activator set, cherry-pick, cytotoxicity control for miR-122 modulator project, dose response (AID 720690).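 Note: HEK293T human cells scored for general mammalian cytotoxicity.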 In kind it is functional, cell-based.
Assay [12] can be described thus: P. falciparum Dd2 growth inhibitors, dose response, SYBR Green, cherry-picked samples (AID 1159567). In kind it is functional, cell-based.
Assay [13] in a line: toxicity to human hepatoma HepG2 cells – cell-based, cherry-picked samples, cytotoxicity control, dose response (AID 1159577). The format is functional.
The next assay has as its target T1, Caspase-6 (Homo sapiens, UniProt P55212).
T1 sequence (P55212 whole entry): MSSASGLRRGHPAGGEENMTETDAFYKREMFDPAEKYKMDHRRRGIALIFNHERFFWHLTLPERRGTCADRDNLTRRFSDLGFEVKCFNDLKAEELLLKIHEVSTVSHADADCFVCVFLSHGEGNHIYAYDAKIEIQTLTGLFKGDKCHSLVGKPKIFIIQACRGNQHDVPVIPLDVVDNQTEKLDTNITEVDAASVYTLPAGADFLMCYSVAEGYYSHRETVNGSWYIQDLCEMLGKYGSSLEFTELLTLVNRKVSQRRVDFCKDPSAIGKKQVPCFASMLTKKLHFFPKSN
Nature of the assay: inhibition of CASP6 peptide cleavage – biochemical, VEID-R110 fluorescence, cherry-pick, dose response (AID 720632).

The target in assay [14] is Glyceraldehyde-3-phosphate dehydrogenase (Homo sapiens, UniProt P04406).
Glyceraldehyde-3-phosphate dehydrogenase, sequence (P04406 whole entry): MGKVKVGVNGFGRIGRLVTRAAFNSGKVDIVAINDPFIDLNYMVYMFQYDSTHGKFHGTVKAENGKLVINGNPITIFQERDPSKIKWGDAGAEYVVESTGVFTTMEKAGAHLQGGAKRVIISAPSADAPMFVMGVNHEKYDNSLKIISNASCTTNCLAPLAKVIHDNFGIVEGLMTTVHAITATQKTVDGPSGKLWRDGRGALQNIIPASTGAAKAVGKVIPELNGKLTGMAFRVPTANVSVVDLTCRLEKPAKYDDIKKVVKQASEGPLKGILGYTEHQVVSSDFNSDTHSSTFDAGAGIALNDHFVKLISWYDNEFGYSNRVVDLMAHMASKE
Another assay deals with T2, Leucine aminopeptidase (Plasmodium falciparum 3D7, UniProt Q8IL11).
T2 sequence (Q8IL11 whole entry): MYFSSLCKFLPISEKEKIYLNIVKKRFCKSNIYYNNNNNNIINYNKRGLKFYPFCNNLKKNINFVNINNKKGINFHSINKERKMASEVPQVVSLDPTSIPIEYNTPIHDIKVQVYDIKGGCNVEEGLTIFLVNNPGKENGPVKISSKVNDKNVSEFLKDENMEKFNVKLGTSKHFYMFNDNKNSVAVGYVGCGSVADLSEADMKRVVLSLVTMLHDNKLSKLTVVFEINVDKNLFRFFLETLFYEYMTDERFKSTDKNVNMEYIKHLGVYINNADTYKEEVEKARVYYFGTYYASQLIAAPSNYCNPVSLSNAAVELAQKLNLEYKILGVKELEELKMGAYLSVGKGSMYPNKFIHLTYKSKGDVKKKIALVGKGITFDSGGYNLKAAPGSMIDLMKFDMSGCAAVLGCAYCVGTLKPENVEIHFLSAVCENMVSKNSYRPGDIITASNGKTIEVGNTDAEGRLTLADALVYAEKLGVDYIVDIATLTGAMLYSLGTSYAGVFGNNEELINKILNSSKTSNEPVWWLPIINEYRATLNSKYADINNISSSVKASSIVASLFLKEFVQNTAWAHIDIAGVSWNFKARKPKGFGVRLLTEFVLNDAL
Nature of the assay: P. falciparum M17LAP inhibitors, primary screen, biochemical, fluorogenic H-Leu-NHMec substrate, 1536-well (AID 1619). The format is functional.

In another assay the test system is INS1. Nature of the assay: INS-1E survival protection against cytokine death – cell-based, luminescence, retest, dose response (AID 449756).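 Note: cell death triggered by IL-1 beta plus TNF-alpha plus IFN-gamma mixture; protective hits raise ATP signal compared with cytokine alone wells.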 The format is functional. Conditions: Rattus norvegicus.
The next assay addresses T3, Aminopeptidase N (Plasmodium falciparum FcB1/Columbia, UniProt O96935).
T3 sequence (O96935 whole entry): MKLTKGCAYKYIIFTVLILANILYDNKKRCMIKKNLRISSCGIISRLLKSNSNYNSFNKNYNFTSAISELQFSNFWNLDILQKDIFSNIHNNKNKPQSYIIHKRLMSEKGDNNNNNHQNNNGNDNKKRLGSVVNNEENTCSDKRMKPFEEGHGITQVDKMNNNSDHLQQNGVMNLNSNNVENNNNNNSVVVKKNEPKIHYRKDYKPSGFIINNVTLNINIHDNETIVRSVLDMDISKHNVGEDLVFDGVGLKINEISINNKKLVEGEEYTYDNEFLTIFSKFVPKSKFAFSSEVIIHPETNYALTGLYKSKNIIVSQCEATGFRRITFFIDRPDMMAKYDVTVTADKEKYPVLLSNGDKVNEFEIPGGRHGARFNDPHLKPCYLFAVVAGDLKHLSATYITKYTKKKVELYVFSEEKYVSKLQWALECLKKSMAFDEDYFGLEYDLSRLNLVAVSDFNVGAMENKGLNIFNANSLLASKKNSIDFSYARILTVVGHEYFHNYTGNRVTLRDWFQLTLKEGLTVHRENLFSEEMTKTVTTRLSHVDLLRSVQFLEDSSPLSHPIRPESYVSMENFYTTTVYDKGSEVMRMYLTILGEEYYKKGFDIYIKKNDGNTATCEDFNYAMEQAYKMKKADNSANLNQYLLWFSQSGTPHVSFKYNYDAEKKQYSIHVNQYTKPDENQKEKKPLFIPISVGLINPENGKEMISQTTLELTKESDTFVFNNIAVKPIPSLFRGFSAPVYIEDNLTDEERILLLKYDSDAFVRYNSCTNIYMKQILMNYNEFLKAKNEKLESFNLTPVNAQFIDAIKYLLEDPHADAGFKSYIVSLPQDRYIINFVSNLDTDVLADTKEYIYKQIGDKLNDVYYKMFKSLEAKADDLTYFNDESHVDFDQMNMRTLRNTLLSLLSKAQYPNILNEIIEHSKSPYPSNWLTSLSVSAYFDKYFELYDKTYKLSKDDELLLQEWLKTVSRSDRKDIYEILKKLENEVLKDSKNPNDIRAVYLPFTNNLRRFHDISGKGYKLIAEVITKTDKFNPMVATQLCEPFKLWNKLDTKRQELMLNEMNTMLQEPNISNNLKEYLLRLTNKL
Nature of the assay: malaria alanyl aminopeptidase activity blockers – biochemical, fluorogenic H-Leu-NHMec substrate, 1536-well (AID 1445). Also noted: species or system Plasmodium falciparum 3D7, 3D7.

Cytochrome P450 3A4, sequence (P08684 whole entry): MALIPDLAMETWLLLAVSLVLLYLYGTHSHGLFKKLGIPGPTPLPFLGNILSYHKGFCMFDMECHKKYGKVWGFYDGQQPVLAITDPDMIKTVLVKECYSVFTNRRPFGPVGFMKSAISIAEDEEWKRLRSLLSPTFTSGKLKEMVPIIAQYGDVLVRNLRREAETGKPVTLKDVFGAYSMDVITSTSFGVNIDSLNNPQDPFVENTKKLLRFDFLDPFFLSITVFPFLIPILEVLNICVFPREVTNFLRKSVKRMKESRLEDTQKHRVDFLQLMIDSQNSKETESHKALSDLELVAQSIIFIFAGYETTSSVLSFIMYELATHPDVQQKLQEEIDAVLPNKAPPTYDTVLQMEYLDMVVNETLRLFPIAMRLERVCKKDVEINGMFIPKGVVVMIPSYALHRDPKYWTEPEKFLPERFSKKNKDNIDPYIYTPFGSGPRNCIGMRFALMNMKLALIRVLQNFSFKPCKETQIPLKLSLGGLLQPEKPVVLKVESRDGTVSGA

As usually defined, the EC50 is the midpoint of the concentration-response curve. As a reminder, the AC50 is the concentration at which the activity in the assay is half-maximal. `CC1=Nc2nnnn2C(c2cccnc2)/C1=C(\O)OC1CCCCC1` (stereo unspecified): the EC50 was 1.79 µM (active) in assay [1] and > 60 µM (not active) in [2]. Besides, the AC50 in assay [3] is 3.23 µM (active); in assay [4] it was > 70 µM (inactive); in assay [5], 3.92 µM (active). `Clc1ccc(C2[C@H]3CN(CC4CCCCC4)[C@H](c4ccccc4)C34CC2(c2ccccc2)C4)cn1` (stereo partly specified): the AC50 on Cytochrome P450 3A4 was 15.8 µM (inconclusive). As for `CC(=O)N1CCCC(c2cc(C(=O)Nc3ccccc3)no2)C1` (stereo unspecified), the AC50 is > 52 µM (inactive) in assay [6], 2.13 µM (active) in [7] and 1.98 µM (active) in [8].

Turning to `COc1ccc(NC(=O)N2CCCCN3[C@@H](CO)[C@H](c4ccc(C#CCC(C)C)cc4)[C@@H]3C2)cc1`, the AC50 in [9] was 3.18 µM (active); in [10] it was 11.7 µM (active); in assay [11], 11.6 µM (active); in [12], 0.491 µM (active); in assay [13] it was 8.52 µM (active).

On to `C[C@@H]1CCCCO[C@@H](CN(C)Cc2ccc3c(c2)OCO3)[C@H](C)CN([C@H](C)CO)C(=O)c2cc(NC(=O)Nc3ccc(C(F)(F)F)cc3)ccc2O1`, for which the concentration at half-maximal activity (AC50) in assay [9] is 5.55 µM (active); in assay [10], 8.08 µM (active); in [11] it was 9.09 µM (active). In the case of `COc1ccc(NC(=O)N(C)C[C@H]2Oc3cc(C#CCC(C)C)ccc3S(=O)(=O)N([C@@H](C)CO)C[C@H]2C)cc1`, the values for the AC50 in [10] and in assay [11] were 6.46 µM (active) and 27 µM (active), respectively. Consider `OC(CN1CCNCC1)Cn1c2ccc(Br)cc2c2cc(Br)ccc21` (stereo unspecified), for which the AC50 on Cytochrome P450 3A4 is 31.6 µM (inconclusive). Take `Cc1ccccc1Nc1nc(N)nc(COC(=O)c2ccc([N+](=O)[O-])o2)n1`: the AC50 on Caspase-6 was 47 µM (active).

Consider `CC(C)c1nc(N(C)S(C)(=O)=O)nc(-c2ccc(F)cc2)c1/C=C/C(O)CC(O)CC(=O)O` (stereo unspecified), for which, at Cytochrome P450 3A4, the AC50 was 39.8 µM (inconclusive). Regarding `C[C@H]1CN([C@@H](C)CO)S(=O)(=O)c2ccc(C3=CCCCC3)cc2O[C@@H]1CN(C)C(=O)Cc1ccncc1`, the concentration at half-maximal activity (AC50) was 3.13 µM (active) in assay [12] and > 39 µM (inactive) in [13]. `Cc1cc(NS(=O)(=O)c2ccc(NC(=O)COc3ccccc3[N+](=O)[O-])cc2)no1`: the AC50 on Caspase-6 is 10.5 µM (active). A word on the IC50: it is the concentration that inhibits the measured activity by half. As for `O=C(O)CS(=O)(=O)c1cccc(C(=O)O)c1`, the IC50 in [14] is recorded as > 100 µM (not active). Turning to `Cc1ccc(N2C(=O)C(Cl)=C(N3CCN(c4ncccn4)CC3)C2=O)cc1`, the IC50 in assay [14] is > 50 µM (inconclusive). `C=C1C([C@@]2(C)C(OC(C)=O)CC(=O)O[C@@](C)(COC(C)=O)C2CC(=O)OC)C(OC=O)C(OC(=O)C(O)C(C)CC)[C@]2(C)C(c3ccoc3)CC(=O)C12O` (stereo partly specified): the concentration at half-maximal activity (AC50) on Cytochrome P450 3A4 was 10 µM (inconclusive).

As to `C[C@@H]1CN(C2=C(Cl)C(=O)N(c3ccnc(Cl)c3)C2=O)CCN1`, the IC50 in assay [14] was > 50 µM (inconclusive). In the case of `CC(=O)N1[C@H](C)C=C[C@]1(Cc1ccccc1)C(=O)NCCc1c[nH]c2ccccc12`, the AC50 at Cytochrome P450 3A4 was 1.58 µM (inconclusive). Take `CCOC(=O)c1oc2c(O)c(O)ccc2c(=O)c1-c1nncn1-c1ccccc1`: the IC50 on Leucine aminopeptidase was 6.58 µM (active). Regarding `CC(C)Cn1c(N)c(C(=O)COC(=O)c2cc(C(F)(F)F)nc3c(C(F)(F)F)cccc23)c(=O)n(C)c1=O`, the AC50 on Cytochrome P450 3A4 was 3.16 µM (inconclusive).

As for `O=C(O)c1cc(S(=O)(=O)Nc2ccc3c[nH]nc3c2)ccc1Br`, the AC50 on Caspase-6 is 14.5 µM (active). In the case of `COc1ccc(C#Cc2ccc([C@H]3[C@H](CO)N4CCCCN(Cc5ccccc5F)C[C@@H]34)cc2)cc1`, the values for the concentration at half-maximal activity (AC50) in [12] and in [13] were 0.781 µM (active) and 10.9 µM (active), respectively. Regarding `C[C@@H]1CN([C@H](C)CO)S(=O)(=O)c2ccc(C#Cc3ccccc3F)cc2O[C@@H]1CN(C)C(=O)Cc1ccncc1`, the AC50 in assay [9] was 5.11 µM (active); in [11] it was 32.4 µM (active). As for `CN1C(=O)c2cc(NC(=O)Nc3ccccc3F)ccc2OC[C@@H]2O[C@@H](CC(=O)NCc3ccc(-c4ccccc4)cc3)CC[C@@H]21`, the AC50 in assay [11] is 47.9 µM (active). Turning to `N=C(CSc1nc(-c2ccccc2)c(-c2ccccc2)o1)NO`, the IC50 on Leucine aminopeptidase was 7.64 µM (active). Regarding `COc1cc(CC(=O)Nc2nc(-c3ccc(F)c(F)c3)cs2)cc(OC)c1OC`, the AC50 with INS1 was 6.89 µM (active); in [3], 3.92 µM (active); in [4] it was 6.77 µM (active); in [5], 19.2 µM (active).

`Cc1noc(NS(=O)(=O)c2ccc(NC(=O)CSc3n[nH]c4c5ccccc5nc-4n3)cc2)c1C`: the results for the IC50 on Leucine aminopeptidase and at Aminopeptidase N were 2.57 µM (active) and 21.9 µM (active), respectively.

With `CSc1nnc(-c2cc(Br)ccc2/N=C/c2c(C)nn(-c3ccccc3)c2O)c(O)n1`, the IC50 at Leucine aminopeptidase is 24.8 µM (active).

The record behind these values is ChEMBL document CHEMBL1201862, “PubChem BioAssay data set” (2004).
